Publication PMC6934184, “Selective DNA-PKcs inhibition extends the therapeutic index of localized radiotherapy and chemotherapy” (The Journal of Clinical Investigation, 2019)

Molecular target: T1, MUSK (Homo sapiens, UniProt O15146)
T1 construct: purchased Thermo Fisher Scientific (Life Technologies) SelectScreen
Assay: SelectScreen Z'LYTE
Assay type: biochemical
Outline: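 SelectScreen broad panel; activity (Z'LYTE, Adapta) plus binding formats. ATP: Km app for CSF1R Z'LYTE; 10 for CAMK1 Adapta. Readout = % per kinase.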

T1 sequence (O15146 24-869): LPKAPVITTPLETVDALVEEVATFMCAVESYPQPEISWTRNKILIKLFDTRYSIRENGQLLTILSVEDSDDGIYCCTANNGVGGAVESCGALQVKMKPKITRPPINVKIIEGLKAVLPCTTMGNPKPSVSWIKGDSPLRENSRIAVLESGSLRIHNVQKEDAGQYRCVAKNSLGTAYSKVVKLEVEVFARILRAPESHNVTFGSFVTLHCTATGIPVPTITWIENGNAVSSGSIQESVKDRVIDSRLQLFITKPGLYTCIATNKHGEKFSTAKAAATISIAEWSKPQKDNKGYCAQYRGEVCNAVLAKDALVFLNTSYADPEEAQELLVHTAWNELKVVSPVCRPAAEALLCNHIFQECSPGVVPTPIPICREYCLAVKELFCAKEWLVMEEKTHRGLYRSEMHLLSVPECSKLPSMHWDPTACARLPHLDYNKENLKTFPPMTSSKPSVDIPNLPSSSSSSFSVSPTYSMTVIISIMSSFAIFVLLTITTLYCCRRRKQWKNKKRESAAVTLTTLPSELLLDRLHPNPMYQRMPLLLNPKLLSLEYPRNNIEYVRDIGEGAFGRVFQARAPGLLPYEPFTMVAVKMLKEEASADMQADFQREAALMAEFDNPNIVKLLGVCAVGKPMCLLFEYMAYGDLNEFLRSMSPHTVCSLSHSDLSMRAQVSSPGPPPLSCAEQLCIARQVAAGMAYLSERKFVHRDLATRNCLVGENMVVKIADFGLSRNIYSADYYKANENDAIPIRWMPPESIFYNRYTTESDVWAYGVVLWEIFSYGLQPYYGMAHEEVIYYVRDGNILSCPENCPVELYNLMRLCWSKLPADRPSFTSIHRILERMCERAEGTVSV

`CN(C(=O)CN1CCOCC1)c1ccc2sc3c(-c4cccc5c(=O)cc(N6CC7CCC(C6)O7)oc45)cccc3c2c1` [NU5455] showed an inhibition at 1 µM of 10.3%.
